Assays:
tissue PDH activity = assay: Ex vivo PDH activation assay (liver and epididymal adipose tissue after oral administration); assay type: in vivo, Sprague-Dawley rats; details: 3 mg/kg, rat, mean ± standard deviation
Experimental: The action of test compound on tissue PDH activity was evaluated. NADH production was detected via p-iodonitrotetrazolium violet (INT)-coupled system to measure PDH activity.
Normal male Sprague-Dawley rats were randomly allocated to the vehicle group and the test compound groups. The vehicle (0.5% aqueous methylcellulose solution, 5 mL/kg) or the test compound was orally administered to the rats. At 5 or 20 hr after administration, the rats were anesthetized with an intraperitoneal injection of sodium pentobarbital (60 mg/kg), and liver slices and epididymal adipose tissues were collected.
(§1) To the liver slices were rapidly added 9 volumes of ice-cold homogenization buffer (0.25 mol/L sucrose, 5 mmol/L tris(hydroxymethyl)aminomethane hydrochloride (pH 7.5), 2 mmol/L EDTA), and the mixtures were homogenized using a Polytron homogenizer. The homogenates were centrifuged at 600×g, 4° C. for 10 min to obtain the supernatant. The supernatants (1 mL) were centrifuged at 16,000×g, 4° C. for 10 min to collect the precipitates. The precipitates were washed by resuspension in the homogenization buffer (1 mL) and centrifuged in the same manner. The precipitates were frozen with liquid nitrogen and stored at −80° C. as the liver mitochondrial fraction.
as §1, with “adipose tissues” for “liver slices”, “3” for “9”, “of an” for “of”, “buffer,” for “buffer (0.25 mol/L sucrose, 5 mmol/L tris(hydroxymethyl)aminomethane hydrochloride (pH 7.5), 2 mmol/L EDTA),”, “supernatants” for “supernatants (1 mL)”, “adipose tissue” for “liver”
The mitochondrial fractions were thawed and suspended with the sample buffer (0.25 mol/L sucrose, 20 mmol/L tris(hydroxymethyl)aminomethane hydrochloride (pH 7.5), 50 mmol/L potassium chloride, and 1 mL/L 4-(1,1,3,3-tetramethylbutyl)phenyl-polyethylene glycol (Triton X-100)). Active PDH activity (PDHa activity) and total PDH activity (PDHt activity) were measured to evaluate the PDH activity. For the measurement of the PDHt activity, equal amounts of the mitochondrial suspension and the activation buffer (0.25 mol/L sucrose, 20 mmol/L tris(hydroxymethyl)aminomethane hydrochloride (pH 7.5), 50 mmol/L potassium chloride, 1 mL/L Triton X-100, 4 mmol/L calcium chloride, 40 mmol/L magnesium chloride, 10 mmol/L sodium dichloroacetate) were mixed, and the mixtures were incubated at 37° C. for 10 min. Forty microliters of the mitochondrial suspensions diluted with a sample buffer were added to a 96-well microplate for activity measurement and blank measurement. Then 180 μL of the reaction mixture (0.056 mmol/L potassium phosphate buffer (pH 7.5), 5.6 mmol/L DL-carnitine, 2.8 mmol/L NAD, 0.22 mmol/L thiamin pyrophosphate, 0.11 mmol/L Coenzyme A, 1.1 mL/L Triton X-100, 1.1 mmol/L magnesium chloride, 1.1 g/L bovine serum albumin, 0.67 mmol/L INT, 7.2 μmol/L phenazine methosulfate, 28 mmol/L sodium oxamate) was added to each well, and then 20 μL of 50 mmol/L sodium pyruvate for activity measurement or water for blank measurement were added. The mixtures were incubated at room temperature under shading. The absorbances at 500-750 nm, which were attributable to reduction of INT, the final electron acceptor, were measured using a microplate reader over time and the changes in the absorbance were calculated. The PDH activity was calculated by subtraction of the change in absorbance of the blank well from that of the activity measurement well. The percentage of the PDHa activity to the PDHt activity was calculated and taken as an index of the PDH activation.

[1] = Metabolic stability test in liver microsome (human); assay type: in vitro ADME; details: 5 μM test compound
Experimental: Human liver microsome (manufactured by Xenotech, H0620, final concentration (after dilution), 0.2 mg protein/mL) was suspended in 100 mM potassium phosphate buffer (pH 7.4, containing β-nicotinamide adenine dinucleotide phosphate: 1.3 mM, D-glucose-6-phosphate: 3.3 mM, magnesium chloride: 3.3 mM, glucose-6-phosphate dehydrogenase: 0.45 U/mL), and further mixed with a test compound dissolved in MeCN/DMSO (95/5) (final concentration 5 μM). The mixture was incubated at 37° C. for 10 min and 60 min, acetonitrile containing formic acid (final concentration 0.1%) was added, and the mixture was centrifuged. The test compound (unmodified) in the supernatant was measured by high performance liquid chromatography/mass spectrometry (LC/MS) (manufactured by Waters, LC: Acquity UPLC, MS:SQ Detector or TQ Detector). The residual ratio (%) was calculated from the obtained measurement value.

[2] = adipose tissue, 5 hr after oral administration
[3] = liver, 5 hr after oral administration
[4] = adipose tissue, 20 hr after oral administration
[5] = liver, 20 hr after oral administration

SMILES	stability in liver microsome (residual ratio %) ([1]; 10 min)	stability in liver microsome (residual ratio %) ([1]; 60 min)	PDHa activity (% PDHt activity) (tissue PDH activity; [2])	PDHa activity (% PDHt activity) (tissue PDH activity; [3])	PDHa activity (% PDHt activity) (tissue PDH activity; [4])	PDHa activity (% PDHt activity) (tissue PDH activity; [5])
CC(C)(O)CCCOc1cc(-c2cnn(CC(C)(C)O)c2)c2c(c1)[C@@](O)(C(F)(F)F)c1ccccc1-2 [compound (4), (9R)-2-(4-hydroxy-4-methylpentyloxy)-4-[1-(2-hydroxy-2-methylpropyl)-1H-pyrazol-4-yl]-9-(trifluoromethyl)-9H-fluoren-9-ol]	98.8%	78.9%	62 ± 13 % PDHt activity	68 ± 11 % PDHt activity	–	–
C[C@H](O)COc1cc(-c2cnn(CC(C)(C)O)c2)c2c(c1)[C@@](O)(C(F)(F)F)c1ccccc1-2 [compound (1), (9R)-4-[1-(2-hydroxy-2-methylpropyl)-1H-pyrazol-4-yl]-2-((2S)-2-hydroxypropoxy)-9-(trifluoromethyl)-9H-fluoren-9-ol]	102.1%	87.8%	64 ± 5 % PDHt activity	60 ± 8 % PDHt activity	56 ± 6 % PDHt activity	13 ± 2 % PDHt activity
NC(=O)Cn1cc(-c2cc(OCCC34CC5CC(CC(O)(C5)C3)C4)cc3c2-c2ccccc2[C@]3(O)C(F)(F)F)cn1 [compound (A), 2-(4-{(9R)-9-Hydroxy-2-[2-(3-hydroxyadamantan-1-yl)ethoxy]-9-(trifluoromethyl)-9H-fluoren-4-yl}-1H-pyrazol-1-yl)acetamide, reference compound]	34.8%	0.0%	32 ± 14 % PDHt activity	35 ± 6 % PDHt activity	24 ± 7 % PDHt activity	16 ± 10 % PDHt activity

Now from value to compound, other results behind:

stability in liver microsome (residual ratio %) ([1]; 10 min)	stability in liver microsome (residual ratio %) ([1]; 60 min)	SMILES	PDHa activity (% PDHt activity) (tissue PDH activity; [2])	PDHa activity (% PDHt activity) (tissue PDH activity; [3])	PDHa activity (% PDHt activity) (tissue PDH activity; [4])	PDHa activity (% PDHt activity) (tissue PDH activity; [5])
94.9%	87.9%	CC(C)(O)COc1cc(-c2cnn(CC(C)(C)O)c2)c2c(c1)[C@@](O)(C(F)(F)F)c1ccccc1-2 [compound (2), (9R)-2-(2-hydroxy-2-methylpropoxy)-4-[1-(2-hydroxy-2-methylpropyl)-1H-pyrazol-4-yl]-9-(trifluoromethyl)-9H-fluoren-9-ol]	58 ± 10 % PDHt activity	67 ± 9 % PDHt activity	36 ± 7 % PDHt activity	16 ± 9 % PDHt activity
98.0%	88.2%	Cn1cc(-c2cc(OCC(C)(C)O)cc3c2-c2ccccc2[C@]3(O)C(F)(F)F)cn1 [compound (B), (9R)-2-(2-Hydroxy-2-methylpropoxy)-4-(1-methyl-1H-pyrazol-4-yl)-9-(trifluoromethyl)-9H-fluoren-9-ol, reference compound]	59 ± 5 % PDHt activity	43 ± 7 % PDHt activity	30 ± 4 % PDHt activity	10 ± 3 % PDHt activity
